Assay [1] concerns the target T1, trypsin-like site of 26S proteasomes (Oryctolagus cuniculus, UniProt G1SWK8).
T1 construct: IC50 for sites in 26S proteasomes: Tr-L; other: purified 26S proteasomes; other: 26S proteasomes from rabbit muscles
T1 sequence (G1SWK8 1-271): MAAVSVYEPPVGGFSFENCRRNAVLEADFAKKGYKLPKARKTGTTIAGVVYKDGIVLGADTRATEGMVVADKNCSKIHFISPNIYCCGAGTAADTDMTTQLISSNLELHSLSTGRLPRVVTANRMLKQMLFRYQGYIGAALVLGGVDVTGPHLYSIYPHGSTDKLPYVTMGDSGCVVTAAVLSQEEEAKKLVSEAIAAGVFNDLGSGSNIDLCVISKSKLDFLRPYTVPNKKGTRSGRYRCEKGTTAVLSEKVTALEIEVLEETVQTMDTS
Kind of assay: Inhibition of purified 26S proteasomes, substrate Ac-RLR-amc. As to conditions: purified 26S proteasomes; >>30 no inhibition at 30 μM, >30 inhibition between 10 and 50% at 30 μM; read-out: IC50 for sites in 26S proteasomes: Tr-L. The class given is biochemical, rabbit.

The test system of assay [2] is trypsin-like sites (β2) of proteasome in MM cells. Description: PROTEASOMEGLO assay of proteasome inhibition in MM cells. It is filed as cell-based.
For assay [3], the target named is T2, chymotrypsin-like site of 26S proteasomes (Oryctolagus cuniculus, UniProt G1T4Q9).
T2 sequence (G1T4Q9 1-263): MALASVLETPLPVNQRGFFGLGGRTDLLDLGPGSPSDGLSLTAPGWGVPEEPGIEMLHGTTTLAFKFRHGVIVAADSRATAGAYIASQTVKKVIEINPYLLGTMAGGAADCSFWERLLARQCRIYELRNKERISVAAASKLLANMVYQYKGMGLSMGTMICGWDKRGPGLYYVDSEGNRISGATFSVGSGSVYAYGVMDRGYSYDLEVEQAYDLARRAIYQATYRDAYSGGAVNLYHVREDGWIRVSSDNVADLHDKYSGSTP
Kind of assay: Inhibition of purified 26S proteasomes, substrate Suc-LLVY-amc. It is filed as biochemical, rabbit. Particulars: >>30 no inhibition at 30 μM, >30 inhibition between 10 and 50% at 30 μM, read-out: IC50 for sites in 26S proteasomes: Chym-L. As to the method:
26S proteasomes were purified from rabbit muscle using known methods (Screen, et al. (2010) supra). […] NOVEX Bis-Tris gels (12%, Invitrogen) with MOPS running buffer were used for electrophoretic separation of catalytic subunits modified by active-site probes. Inhibition of active sites inside cells was assayed using luminescent PROTEASOMEGLO assay (Promega; Moravec, et al. (2009) Anal. Biochem. 387:294-302) according to known methods (Britton, et al. (2009) supra).

Assay [4] deals with T3, β2 proteasome subunit (Homo sapiens, UniProt P49720+Q99436).
T3 construct: Whole cell lysates of HEK-293T or EL-4 cells were made by sonication; endogenous in cells; host or cells: HEK-293T
Kind of assay: Competition assay in HEK-293T cell lysate with MV151. It is filed as biochemical.

Assay [5] deals with Cathepsin B, H, L, S. Kind of assay: Cathepsin activity with pan-cathepsin substrate Z-FR-amc. The class given is cell-based. Particulars: NCI-H929 cells, 6 hour treatment. The method, then:
(§1) Cathepsin B, H, L, S activity was measured with pan-cathepsin substrate Z-FR-amc (Kirschke & Wiederanders (1994) Methods Enzymol. 244:500-11) in extracts of cytosol-less cells at pH 6.0 (Screen, et al. (2010) supra). Cathepsin D activity was measured in cytosol-less extracts using SENSOLYTE 520 Cathepsin D Fluorometric Assay Kit (AnaSpec). Combined cathepsin D and E activity was measured using the same kit, in which cathepsin D substrate provided with the kit was replaced with 7-Methoxycoumarin-[…](Dnp)-X′-NH2 (SEQ ID NO:10; where “X′” stand for D-Arg) internally quenched fluorogenic substrate of cathepsin D and E. In this case, pH 3.0 assay buffer used for cell extraction. All activity observed using both procedures was inhibited by more than 98% by specific inhibitor of aspartic proteases pepstatin A.

The target of assay [6] is T4, cathepsin D (Homo sapiens, UniProt P07339).
T4 construct: endogenous in cells
Kind of assay: Cathepsin D activity assay (SENSOLYTE 520). It is filed as cell-based. The method, then: as §1

Assay [7] deals with proteasome catalytic subunits in NCI-H929 cells. Description: Isolation and identification of polypeptides modified by az-NC-002. The class given is cell-based. Particulars: BioP ligation, streptavidin isolation, mass-spectrometry. The method, then: Cells were treated with the activity-based site probe overnight and lysed with 50 mM Tris-HCl, 10% glycerol, 5 mM MgCl2, 0.5 mM EDTA, 0.5% CHAPS, 1 mM ATP. […] After on-beads trypsin digestion, samples were analyzed by LC-MS/MS (Florea, et al. (2010) Chem. Biol. 17:795-801). IRDYE 800 CW-conjugated streptavidin was purchased from Rockland, hsc71 antibodies from Abcam (Cat #19136), and β2 antibodies from Abgent (Cat #AP2914b).
To further confirm that NC-002, NC-012 and NC-022 were specific for the trypsin-like sites and that the biological activity was not due to off-target effects, az-NC-002 was synthesized as an NC-002-derived, activity-based probe. […] One major az-NC-002-specific streptavidin-reactive band was detected. […] A weaker band of slightly lower mobility, matching the mobility of β2i band, was also detected. […] A number of endogenously biotinylated proteins in the 70-100 kDa region were also detected and can serve as a loading control.
To further confirm that the probe covalently modified β2 and β2i subunits, proteasome was denatured after BioP modification, biotinylated polypeptides were isolated on streptavidin beads, and bound polypeptides were identified by mass-spectrometry after on-beads trypsin digestion. […] No peptides derived from other catalytic subunits were detected.

Assay [8] relates to trypsin-like site of 26S proteasomes. Kind of assay: Inhibition of purified 26S proteasomes, substrate Ac-RLR-amc. The class given is biochemical, rabbit.
Assay [9] has as its target β2 (trypsin-like site) of proteasome in HEK-293T cells (Homo sapiens, UniProt P49720+Q99436). Description: Competition assay in living HEK-293T cells with activity-based probe. The class given is cell-based. The method, then:
Proteasome inhibition in MM cells was measured with luminogenic substrates using PROTEASOMEGLO assay (Promega). […] An aliquot of culture was pelleted and medium was removed and replaced with PBS. The resulting cell suspension was mixed with luminogenic substrates in the manufacturer-provided lysis/assay buffer. After 3 minutes mixing on an orbital shaker, the plate was incubated in the dark for additional 17 minutes, followed by the measurements of the luminescence, performed in triplicate for each substrate/data point. Data were analyzed as for purified proteasomes. […] Cells (1×10^6 per well of a 6-well plate) were incubated with the inhibitors for 4 hours at 37° C. and this was followed by a 2 hour incubation with 5 μM BODIPY-TMR-epoxomicin. Subsequently, the medium was removed and the cells were washed with PBS and harvested. […] The supernatant was collected and the protein concentration was determined by the Bradford assay, and used to normalize gel loading. The samples were analysed by SDS-PAGE and fluorescent densitometry as described for competition experiment in cell lysates. IC50 values were calculated from three independent experiments using […] PRISM software.
Human embryonic kidney cells (some 1×10^6) were cultured in 6-well plates in DMEM containing 10% fetal calf serum, 10 units/mL penicillin and 10 μg/mL streptomycin in a 7% CO2 humidified incubator at 37° C. overnight. Part of the medium was taken and to this was added the appropriate inhibitor in DMSO (1 μL of a 1,000× stock solution), after which the medium was added to the cells. The cells were incubated with the inhibitors for 4 hours at 37° C. and this was followed by addition of MV151 (1 μL of a 5 mM stock solution in DMSO) and incubation for 2 hours at 37° C. Next, the medium was removed and the cells were washed with PBS and harvested. […] The supernatant was collected and the protein concentration was determined by the Bradford assay. All samples were normalized to the same protein concentration with lysis buffer.

Assay [10] addresses T5, β5 proteasome subunit (Homo sapiens, UniProt P20618+P28074).
T5 construct: Whole cell lysates of HEK-293T or EL-4 cells were made by sonication; endogenous in cells; host or cells: HEK-293T
Kind of assay: Competition assay in HEK-293T cell lysate with MV151. It is filed as biochemical. As to conditions: HEK-293T lysate, 5 μM. As to the method: Whole cell lysates of HEK-293T or EL-4 cells were made by sonication in 3 volumes of lysis buffer containing 50 mM Tris pH 7.5, 1 mM DTT, 5 mM MgCl2, 250 mM sucrose, 2 mM ATP, 0.025% digitonin. Protein concentration was determined by the Bradford assay. Cell lysates (13.5 μg total protein for HEK lysates and 9 μg total protein for EL-4 lysates) were exposed to the inhibitors for 1 hour at 37° C. prior to incubation with MV151 (0.5 μM) or BODIPY-TMR-epoxomicin (0.5 μM) for an additional 1 hour at 37° C. Reaction mixtures were boiled with Laemmli's buffer containing (3-mercaptoethanol for 5 minutes before being resolved by 12.5% SDS-PAGE. In-gel detection of residual proteasome activity was performed in the wet gel slabs directly on the TYPHOON Variable Mode Imager (Amersham Biosciences) using the Cy3/Tamra settings (λex 532 nm, λem 560 nm) to detect MV151, BODIPY-TMR-epoxomicin and Cy2/Fam settings (λex 488 nm, λem 520 nm) to detect compounds 39 and 59.
The inhibition potential of the inhibitors for each of the catalytically active subunits was assessed in competition assays employing extracts of human embryonic kidney cells (HEK-293T) and mouse lymphoma cells (EL-4) in combination with the fluorescent broad spectrum proteasome probe MV151 (Verdoes, et al. (2006) Chem. Biol. 13:1217-1226). Competitive inhibition of a proteasome active site is reflected by the disappearance of the corresponding band on a gel.

Results on three compounds are retold here after patent US8609610B2, “Inhibitors of the trypsin-like site of the proteasome and methods of use thereof” (Trustees of Dartmouth College, priority 2011, dated 2013).

pIC50: −log10 of the molar value.

The pIC50 is −log10 of the IC50, conventionally taken in molar units.

T4 sequence (P07339 65-412): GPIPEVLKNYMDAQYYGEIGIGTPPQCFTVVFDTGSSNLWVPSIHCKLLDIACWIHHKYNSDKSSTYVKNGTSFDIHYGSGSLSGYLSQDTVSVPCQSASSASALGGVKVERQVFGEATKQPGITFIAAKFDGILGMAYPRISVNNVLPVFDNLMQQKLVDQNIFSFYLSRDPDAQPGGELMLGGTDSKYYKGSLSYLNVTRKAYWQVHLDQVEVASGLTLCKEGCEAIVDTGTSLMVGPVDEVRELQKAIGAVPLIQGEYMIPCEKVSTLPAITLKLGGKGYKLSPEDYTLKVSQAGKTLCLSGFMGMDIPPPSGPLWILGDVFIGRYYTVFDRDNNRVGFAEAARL

`CC(C)C[C@H](NC(=O)[C@H](Cc1ccc(CN)cc1)NC(=O)[C@H](Cc1ccccc1)N=[N+]=[N-])C(=O)N[C@H](/C=C/S(C)(=O)=O)Cc1ccc(CN)cc1` [Compound 52, N3-Phe-Phe (4-CH2NH2)-Leu-Phe (4-CH2NH2)-VS]: the pIC50 in assay [1] was 8.18; in assay [3], 5.41. The “difference in IC50 for trypsin-like activity between NCI-H929 and RPMI-8226” value in assay [2] worked out at 2.5 fold. Further, the “potency in extracts of human cells” value in [4] (HEK293 extracts) was “most potent inhibitor in extracts”. Further, the “inhibition of cathepsins (Z-FR-amc)” value in [5] is recorded as “slightly more potent inhibitor of cathepsins”.

Consider `CC(C)C[C@H](NC(=O)CN=[N+]=[N-])C(=O)N[C@@H](CC(C)C)C(=O)N[C@@H](CCCNC(=N)N)C(=O)[C@@]1(C)CO1` [az-NC-002, Az-Gly-Leu-Leu-Arg-ek], for which, in assay [6], the “inhibition of cathepsin D” value is on record as “no significant inhibition”. Also, the “subunits modified by the probe” value in assay [7] is on record as “trypsin-like site-specific activity-based probe”.

On to “BODIPY-triazole-Phe-Leu-Leu-Phe (4-CH2NH2)-VS [Compound 39]”, for which, in assay [8], the “inhibition of trypsin- and chymotrypsin-like activities” value was “equipotently inhibited trypsin- and chymotrypsin-like activities”; the “specificity after attachment of BODIPY-FL dye” value was “complete loss of specificity”. Also, the “inhibition of β2 and β5 in living cells” value in [9] (5 μM) was “seemed not to be competed away at all”. In addition, the “inhibition of proteasome activity in living cells” value in [9] (50 μM) is listed as “not all proteasome activity was silenced”. Further, in assay [4] (HEK-293T lysate, 5 μM), the “inhibition of β2 in cell lysate” value is “all β2 and β5 proteasomal activity was inhibited”. Besides, the “inhibition of β5 in cell lysate” value in assay [10] is “all β2 and β5 proteasomal activity was inhibited”.
